Source: patent publication US20260034075A1, “CHOLINE CARBOXYLIC ACID BASED IONIC LIQUIDS AS ANTIMICROBIAL AGENTS” (University of Mississippi, priority 2022, published 2026)
Read-outs that look alike come from different tables or passages of the source.

Experiments:
[1] = system: E. coli [BL21(DE3)]; test: Minimal Bactericidal Concentration (MBC) measurements, E. coli; format: cell-based
Procedure: (§1) Bacterial Cell Culturing. Expression cells from frozen stock were streaked onto a kanamycin-selected lysogeny broth (LBKan) agar plate using a sterile loop and incubated overnight at 37° C. One colony was then taken from the plate the next day to inoculate 50 mL of sterile LBKan broth and shaken at 37° C. until reaching a growth concentration of 4×10^8 CFU/mL. This protocol was used for bacterial cell culture preparation in all of the experiments described below.
Minimal Bactericidal Concentration (MBC) Measurements. E. coli cells were cultured as described above and aliquoted into sterile tubes. 1%, 10%, and 100% (w/v) solutions of IL in sterile water (correcting for water percentage of the IL) were prepared and sonicated for 15 minutes at 40° C. before addition to the liquid culture. IL solutions were then added to E. coli at varying percentages (v/v), allowing calculation of the actual concentration of IL that was added to the culture. 100 μL of each solution was then spread onto an LBKan agar plate and incubated overnight at 37° C. […] Each IL solution was tested in triplicate.

[2] = system: MRSA [BAA-1708]; test: Growth inhibition / MBC of Methicillin Resistant Staphylococcus aureus (MRSA); format: cell-based
Procedure: as §1
Growth Inhibition of Methicillin Resistant Staphylococcus Aureus (MRSA). 10% (w/v) solutions of IL in sterile water were prepared similarly to the E. coli MBC experiments. ILs with anion chain lengths of 8-12 carbons at 1:2 mole ratio of choline to anion were added to MRSA at varying concentrations to determine the lowest concentration in which growth was inhibited. Concentrations were then compared to values obtained for E. coli for each solution.

[3] = Table 1, lowest IL concentration with no growth on LBKan agar plate, triplicate

Compound	E. coli MBC [1, 3] [mM]	also measured
CC=CC(=O)[O-].C[N+](C)(C)CCO [CA2BE 1:1, Choline 2-Butenoate 1:1]	1330.40	
CCCCCCCC=CC(=O)[O-].C[N+](C)(C)CCO [CA2DE 1:1, Choline 2-Decenoate 1:1]	3.67	
CCCC=CC(=O)[O-].C[N+](C)(C)CCO [CA2HE 1:1, Choline 2-Hexenoate 1:1]	507.63	
CCCCC=CC(=O)[O-].C[N+](C)(C)CCO [CA2HPE 1:1, Choline 2-Heptenoate 1:1]	346.93	
CCCCCC/C=C/C(=O)O [CA2NE 1:1, Choline 2-Nonenoate 1:1]	56.40	
CCCCCC/C=C/C(=O)O [CA2NE 1:2, Choline 2-Nonenoate 1:2]	1.22	
CCCCC/C=C/C(=O)O [CA2OE 1:1, Choline 2-Octenoate 1:1]	84.70	
CCC=CC(=O)[O-].C[N+](C)(C)CCO [CA2PE 1:1, Choline 2-Pentenoate 1:1]	1151.30	
CCCCCCCC/C=C/C(=O)O [CA2UE 1:1, Choline 2-Undecenoate 1:1]	15.08	
C=CCC(=O)[O-].C[N+](C)(C)CCO [CA3BE 1:1, Choline 3-Butenoate 1:1]	1350.93	
CCCCCCC=CCC(=O)[O-].C[N+](C)(C)CCO [CA3DE 1:1, Choline 3-Decenoate 1:1]	3.10	
CC/C=C/CC(=O)O [CA3HE 1:1, Choline 3-Hexenoate 1:1]	511.17	
CCCC=CCC(=O)[O-].C[N+](C)(C)CCO [CA3HPE 1:1, Choline 3-Heptenoate 1:1]	347.63	
C[N+](C)(C)CCO.O=C([O-])CCS [CA3MP 1:1, Choline 3-Mercaptopropionate 1:1]	1378.42	
CCCCC/C=C/CC(=O)O [CA3NE 1:1, Choline 3-Nonenoate 1:1]	57.50	
CCCC/C=C/CC(=O)O [CA3OE 1:1, Choline 3-Octenoate 1:1]	92.00	
CC=CCC(=O)[O-].C[N+](C)(C)CCO [CA3PE 1:1, Choline 3-Pentenoate 1:1]	1152.23	
CC(=O)OCC(=O)O [CAAA 1:1, Choline Acetoxyacetate 1:1]	73.40	
CCCC(=O)[O-].C[N+](C)(C)CCO [CABA 1:1, Choline Butanoate 1:1]	1234.35	
CCCCCCCCCCCC(=O)[O-].C[N+](C)(C)CCO [CADDA 1:1, Choline Dodecanoate 1:1]	17.10	E. coli MBC / killing efficacy concentration [1]: 17.1 mM
CCOCC(=O)[O-].C[N+](C)(C)CCO [CAEA 1:1, Choline Ethoxyacetate 1:1]	1746.07	

Compound	E. coli MBC [1, 3] [mM]	also measured
C[N+](C)(C)CCO.O=C([O-])/C=C/C(=O)O [CAFU 1:1, Choline Fumarate 1:1]	27.17	
CC/C=C(\C)C(=O)O [CAGAS 1:1, Choline trans-2-Methyl-2-Pentenoate 1:1]	530.73	
CC/C=C(\C)C(=O)O [CAGAS 1:2, Choline trans-2-Methyl-2-Pentenoate 1:2]	44.60	
CCCCCC(=O)[O-].C[N+](C)(C)CCO [CAHA 1:1, Choline Hexanoate 1:1]	483.53	
CCCCCCC(=O)[O-].C[N+](C)(C)CCO [CAHPA 1:1, Choline Heptanoate 1:1]	101.80	
C[N+](C)(C)CCO.O=C([O-])CC(=O)O [CAMA 1:1, Choline Malonate 1:1]	1368.53	
C[N+](C)(C)CCO.O=C([O-])C=CC(=O)O [CAME 1:1, Choline Maleate 1:1]	38.37	
C[N+](C)(C)CCO.O=C(O)CC(O)C(=O)[O-] (centres unmarked) [CAMI 1:1, Choline Malate 1:1]	1126.13	
CCCCCCCCC(=O)[O-].C[N+](C)(C)CCO [CANA 1:1, Choline Nonanoate 1:1]	13.63	
CCCCCCCC(=O)[O-].C[N+](C)(C)CCO [CAOA 1:1, Choline Octanoate 1:1]	76.63	
CCCCC(=O)[O-].C[N+](C)(C)CCO [CAPA 1:1, Choline Pentanoate 1:1]	792.10	
CCCCCCCCCCC(=O)[O-].C[N+](C)(C)CCO [CAUA 1:1, Choline Undecanoate 1:1]	15.50	
Choline 2-Butenoate 1:2 [CA2BE 1:2]	158.97	
Choline 2-Decenoate 1:2 [CA2DE 1:2]	0.77	
Choline 2-Heptenoate 1:2 [CA2HPE 1:2]	21.33	
Choline 2-Hexenoate 1:2 [CA2HE 1:2]	54.37	
Choline 2-Octenoate 1:2 [CA2OE 1:2]	5.18	
Choline 2-Pentenoate 1:2 [CA2PE 1:2]	120.10	
Choline 2-Undecenoate 1:2 [CA2UE 1:2]	1.78	E. coli MBC ([1]; Table 2, comparison with MRSA): 1.78 mM; MRSA MBC ([2]; Table 2, 1:2 mole ratio ILs): 1.06 mM
Choline 3-Butenoate 1:2 [CA3BE 1:2]	153.33	
Choline 3-Decenoate 1:2 [CA3DE 1:2]	0.57	E. coli MBC ([1]; Table 2, comparison with MRSA): 0.57 mM; MRSA MBC ([2]; Table 2, 1:2 mole ratio ILs): 1.13 mM

Compound	E. coli MBC [1, 3] [mM]	also measured
Choline 3-Heptenoate 1:2 [CA3HPE 1:2]	18.93	
Choline 3-Hexenoate 1:2 [CA3HE 1:2]	52.00	
Choline 3-Mercaptopropionate 1:2 [CA3MP 1:2]	101.07	
Choline 3-Octenoate 1:2 [CA3OE 1:2]	2.16	
Choline 3-Pentenoate 1:2 [CA3PE 1:2]	134.83	
Choline Acetoxyacetate 1:2 [CAAA 1:2]	12.41	
Choline Butanoate 1:2 [CABA 1:2]	152.70	
Choline Dodecanoate 1:2 [CADDA 1:2]	8.34	E. coli MBC ([1]; Table 2, comparison with MRSA): 8.34 mM; MRSA MBC [2]: 0.99 mM; MRSA MBC ([2]; Table 2, 1:2 mole ratio ILs): 0.99 mM
Choline Ethoxyacetate 1:2 [CAEA 1:2]	89.20	
Choline Fumarate 1:2 [CAFU 1:2]	10.05	
Choline Heptanoate 1:2 [CAHPA 1:2]	16.33	
Choline Hexanoate 1:2 [CAHA 1:2]	28.23	
Choline Malate 1:2 [CAMI 1:2]	91.80	
Choline Maleate 1:2 [CAME 1:2]	20.00	
Choline Malonate 1:2 [CAMA 1:2]	21.60	
Choline Nonanoate 1:2 [CANA 1:2]	1.01	
Choline Octanoate 1:2 [CAOA 1:2]	4.91	
Choline Pentanoate 1:2 [CAPA 1:2]	110.37	
Choline Undecanoate 1:2 [CAUA 1:2]	1.98	E. coli MBC ([1]; Table 2, comparison with MRSA): 1.98 mM; MRSA MBC ([2]; Table 2, 1:2 mole ratio ILs): 2.10 mM
